Experimental data published in ChEMBL document CHEMBL1156667, “Dynamic nature of the ligustilide complex” (J Nat Prod, 2008).

Experiments:
Format in all cases: physicochemical
[1] = Chemical stability in CDCl3 after 46 days by GC-MS analysis; conditions: read-out: Stability
[2] = Chemical stability in heaxane; EtOAc:MeOH:H2O-7 (9:1:9:1) after 41 days by qHNMR experiment; conditions: hexane:EtOAc:MeOH:H2O (9:1:9:1) solvent mixture; read-out: Stability
[3] = Chemical stability in DMSO after 41 days; conditions: read-out: Stability
[4] = Chemical stability in MeOH after 41 days; conditions: read-out: Stability
[5] = Chemical stability in CDCl3 after 46 days by qHNMR experiment; conditions: read-out: Stability

remaining at 1104 h [1]: 91.6%
remaining at 984 h [2]: 0.8%
remaining at 984 h [3]: 5.2%
remaining at 984 h [4]: 4.4%
remaining at 1104 h [5]: 78.1%
SMILES: CCC/C=C1\OC(=O)C2=C1CCC=C2 [LIGUSTILIDE]
